Measured values from patent US20140135310A1, “SULPHONAMIDE DERIVATIVES OF ALICYCLIC AMINES FOR THE TREATMENT OF CENTRAL NERVOUS SYSTEM DISEASES” (Adamed Sp. z o.o., priority 2011, published 2014).
Read-outs that look alike come from different tables or passages of the source.

Experiments:
Assay type in all cases: cell-based
[1] = target: T1, 5-HT1A serotoninergic receptors (Homo sapiens, UniProt P08908); assay: Cellular functional assay, 5-HT1A serotoninergic receptors; settings: for 5-HT1A ag [%]: agonist mode, percent of control specific agonist response; for 5-HT1A antag [%]: antagonist mode
T1 sequence (P08908 1-422): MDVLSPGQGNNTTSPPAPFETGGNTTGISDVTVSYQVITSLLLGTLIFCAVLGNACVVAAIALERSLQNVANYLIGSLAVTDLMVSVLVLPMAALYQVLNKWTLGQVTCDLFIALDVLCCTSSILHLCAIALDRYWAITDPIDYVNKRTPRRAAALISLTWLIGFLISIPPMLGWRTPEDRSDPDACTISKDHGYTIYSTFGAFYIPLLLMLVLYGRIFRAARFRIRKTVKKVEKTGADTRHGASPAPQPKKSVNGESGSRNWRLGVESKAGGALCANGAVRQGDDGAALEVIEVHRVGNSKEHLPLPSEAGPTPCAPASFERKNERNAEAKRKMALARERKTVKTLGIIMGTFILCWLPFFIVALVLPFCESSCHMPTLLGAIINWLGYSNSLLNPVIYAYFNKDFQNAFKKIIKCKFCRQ
Description: (§1) The results are expressed as a percent of control specific agonist response ((measured specific response/control specific agonist response)×100) obtained in the presence of the test compounds.
(§2) The EC50 values (concentration producing a half-maximal specific response) and IC50 values (concentration causing a half-maximal inhibition of the control specific agonist response) were determined by non-linear regression analysis of the concentration-response curves generated with mean replicate values using Hill equation curve fitting (Y=D+[(A−D)/(1+(C/C50)nH)], where Y=specific response, D=minimum specific response, A=maximum specific response, C=compound concentration, and C50=EC50 or IC50, and nH=slope factor). This analysis was performed using a software developed at Cerep (Hill software) and validated by comparison with data generated by the commercial software SigmaPlot® 4.0 for Windows® (© 1997 by SPSS Inc.).
(§3) For the antagonists, the apparent dissociation constants (Kb) were calculated using the modified Cheng Prusoff equation (Kb=IC50/(1+(A/EC50A)), where A=concentration of reference agonist in the assay, and EC50A=EC50 value of the reference agonist).

[2] = target: 5-HT7 serotoninergic receptors (Homo sapiens, UniProt P34969); assay: Cellular functional assay, 5-HT7 serotoninergic receptors; settings: for 5-HT7 ag [%]: agonist mode, percent of control specific agonist response; for 5-HT7 antag [%]: antagonist mode; for Kb: apparent dissociation constant, modified Cheng Prusoff equation, read-out: 5-HT7 antag Kb
Sequence of 5-HT7 serotoninergic receptors (P34969 whole entry): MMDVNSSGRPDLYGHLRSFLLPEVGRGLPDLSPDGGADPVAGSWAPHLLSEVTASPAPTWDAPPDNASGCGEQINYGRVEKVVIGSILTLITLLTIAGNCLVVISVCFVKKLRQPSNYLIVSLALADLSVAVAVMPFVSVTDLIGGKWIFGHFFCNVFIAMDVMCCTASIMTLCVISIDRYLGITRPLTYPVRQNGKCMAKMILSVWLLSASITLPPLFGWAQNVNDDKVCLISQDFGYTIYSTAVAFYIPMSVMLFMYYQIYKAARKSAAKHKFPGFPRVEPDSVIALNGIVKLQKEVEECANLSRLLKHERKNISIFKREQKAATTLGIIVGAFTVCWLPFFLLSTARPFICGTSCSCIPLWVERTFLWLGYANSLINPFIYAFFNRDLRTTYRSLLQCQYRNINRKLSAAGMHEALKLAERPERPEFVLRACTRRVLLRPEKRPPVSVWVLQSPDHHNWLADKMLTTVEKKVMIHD
Description: as §1, §2, §3

[3] = target: 5-HT2A serotoninergic receptors (Homo sapiens, UniProt P28223); assay: Cellular functional assay, 5-HT2A serotoninergic receptors; settings: for Kb: apparent dissociation constant, modified Cheng Prusoff equation, read-out: 5-HT2A antag Kb
Sequence of 5-HT2A serotoninergic receptors (P28223 whole entry): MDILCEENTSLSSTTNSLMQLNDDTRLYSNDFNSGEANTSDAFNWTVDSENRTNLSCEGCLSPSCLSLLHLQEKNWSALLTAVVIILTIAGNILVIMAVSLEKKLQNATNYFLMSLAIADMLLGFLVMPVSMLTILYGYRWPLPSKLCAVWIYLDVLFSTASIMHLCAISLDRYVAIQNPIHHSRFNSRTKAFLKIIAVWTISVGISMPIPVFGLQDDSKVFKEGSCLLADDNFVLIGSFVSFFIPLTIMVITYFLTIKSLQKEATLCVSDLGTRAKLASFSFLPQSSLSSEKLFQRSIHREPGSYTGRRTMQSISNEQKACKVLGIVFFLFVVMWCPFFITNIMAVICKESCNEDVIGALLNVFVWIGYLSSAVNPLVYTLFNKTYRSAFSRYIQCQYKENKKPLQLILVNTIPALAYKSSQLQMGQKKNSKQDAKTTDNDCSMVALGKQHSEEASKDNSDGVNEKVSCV
Description: as §1
as §2, with “factor).” for “factor). This analysis was performed using a software developed at Cerep (Hill software) and validated by comparison with data generated by the commercial software SigmaPlot® 4.0 for Windows® (© 1997 by SPSS Inc.).”
as §3

[4] = target: 5-HT6 serotoninergic receptors (Homo sapiens, UniProt P50406); assay: Cellular functional assay, 5-HT6 serotoninergic receptors; settings: for 5-HT6 ag [%]: agonist mode, percent of control specific agonist response
Sequence of 5-HT6 serotoninergic receptors (P50406 whole entry): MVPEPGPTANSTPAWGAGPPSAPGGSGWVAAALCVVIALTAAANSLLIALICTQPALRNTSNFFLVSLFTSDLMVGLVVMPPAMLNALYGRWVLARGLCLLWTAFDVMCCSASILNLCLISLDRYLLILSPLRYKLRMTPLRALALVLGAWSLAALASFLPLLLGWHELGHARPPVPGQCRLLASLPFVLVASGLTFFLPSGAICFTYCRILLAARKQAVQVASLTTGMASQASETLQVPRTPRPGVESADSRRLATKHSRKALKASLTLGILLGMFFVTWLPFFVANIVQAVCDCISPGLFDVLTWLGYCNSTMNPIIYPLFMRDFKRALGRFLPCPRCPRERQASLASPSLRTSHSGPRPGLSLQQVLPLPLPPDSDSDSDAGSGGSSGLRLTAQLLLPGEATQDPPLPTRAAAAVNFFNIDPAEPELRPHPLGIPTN
Description: as §1, §2, §3

[5] = target: D3 dopaminergic receptors (Homo sapiens, UniProt P35462); assay: Cellular functional assay, D3 dopaminergic receptors; settings: for D3 ag [%]: agonism, percent of control specific agonist response (0.3 μM dopamine for control); for D3 ag [%] / D3 antag [%]: D3 (h), CHO cells; for D3 antag [%]: antagonism, stimulus dopamine (10 nM); for Kb: apparent dissociation constant, modified Cheng Prusoff equation, read-out: D3 antag Kb
Sequence of D3 dopaminergic receptors (P35462 whole entry): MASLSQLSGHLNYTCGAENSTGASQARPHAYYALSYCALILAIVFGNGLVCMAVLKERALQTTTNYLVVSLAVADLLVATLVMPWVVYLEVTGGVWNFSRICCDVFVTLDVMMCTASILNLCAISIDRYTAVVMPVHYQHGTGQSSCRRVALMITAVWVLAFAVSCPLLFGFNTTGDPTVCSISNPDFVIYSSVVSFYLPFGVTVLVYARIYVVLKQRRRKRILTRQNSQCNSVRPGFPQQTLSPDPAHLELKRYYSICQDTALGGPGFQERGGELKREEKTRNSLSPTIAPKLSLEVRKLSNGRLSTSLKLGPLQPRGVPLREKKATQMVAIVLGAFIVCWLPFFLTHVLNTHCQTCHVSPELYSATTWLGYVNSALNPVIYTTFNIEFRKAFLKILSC
Description: as §1, §2, §3

[6] = target: D2 dopaminergic receptors (Homo sapiens, UniProt P14416); assay: Cellular functional assay, D2 dopaminergic receptors; settings: for D2 ag [%]: agonism, percent of control specific agonist response (3 μM dopamine for control); for D2 ag [%] / D2 antag [%]: D2S (h), HEK-293 cells; for D2 antag [%]: antagonism, stimulus dopamine (30 nM); for Kb: apparent dissociation constant, modified Cheng Prusoff equation, read-out: D2 antag Kb
Sequence of D2 dopaminergic receptors (P14416 whole entry): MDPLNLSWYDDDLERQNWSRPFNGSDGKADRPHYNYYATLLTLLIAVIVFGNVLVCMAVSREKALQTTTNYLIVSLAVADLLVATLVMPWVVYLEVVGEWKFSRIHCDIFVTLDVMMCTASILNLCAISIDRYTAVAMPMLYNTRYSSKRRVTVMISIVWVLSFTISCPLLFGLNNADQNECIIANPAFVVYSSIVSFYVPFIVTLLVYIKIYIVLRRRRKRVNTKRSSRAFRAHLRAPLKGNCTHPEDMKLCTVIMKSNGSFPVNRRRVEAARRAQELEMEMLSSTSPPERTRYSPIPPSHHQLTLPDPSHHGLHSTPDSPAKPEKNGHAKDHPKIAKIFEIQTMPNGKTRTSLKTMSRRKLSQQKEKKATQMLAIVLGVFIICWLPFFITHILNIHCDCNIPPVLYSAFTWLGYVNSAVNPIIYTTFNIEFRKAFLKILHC
Description: as §1, §2, §3

[7] = target: T2, D4 dopaminergic receptors (Homo sapiens, UniProt P21917); assay: Cellular functional assay, D4 dopaminergic receptors; settings: D4.4 (h), CHO cells; for D4 ag [%]: agonism, percent of control specific agonist response (300 nM dopamine for control); for D4 antag [%]: antagonism, stimulus dopamine (100 nM)
T2 sequence (P21917 1-419): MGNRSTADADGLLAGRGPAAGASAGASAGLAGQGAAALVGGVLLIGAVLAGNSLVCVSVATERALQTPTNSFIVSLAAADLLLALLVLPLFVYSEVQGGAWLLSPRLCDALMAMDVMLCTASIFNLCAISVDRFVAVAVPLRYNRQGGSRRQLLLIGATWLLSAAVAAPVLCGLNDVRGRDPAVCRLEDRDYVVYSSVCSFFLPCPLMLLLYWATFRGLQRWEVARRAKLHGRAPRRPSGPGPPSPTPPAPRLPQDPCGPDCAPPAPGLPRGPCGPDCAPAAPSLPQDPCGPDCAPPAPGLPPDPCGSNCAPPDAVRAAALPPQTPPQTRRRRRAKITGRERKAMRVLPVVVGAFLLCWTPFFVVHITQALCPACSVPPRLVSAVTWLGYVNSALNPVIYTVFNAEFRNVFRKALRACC
Description: as §1, §2, §3

[8] = agonist mode, percent of control specific agonist response

SMILES | 5-HT1A ag [%] [1] | 5-HT1A antag [%] [1] | 5-HT7 ag [%] [2] | 5-HT7 antag [%] [2] | 5-HT2A ag [%] [3] | 5-HT6 ag [%] [4] | D3 ag [%] [5] | D3 antag [%] [5] | D2 ag [%] [6] | D2 antag [%] [6] | D4 ag [%] [7] | D4 antag [%] [7] | 5-HT2A ag [%] [3, 8] | Kb [3] | Kb ([4]; apparent dissociation constant, modified Cheng Prusoff equation, read-out: 5-HT6 antag Kb) | Kb [5] | Kb [2] | Kb [6]
Cc1cccc(S(=O)(=O)NC2CN(CCOc3cccc4c3OCCO4)C2)c1 [Compound 93, N-[1-[2-(2,3-Dihydro-1,4-benzodioxan-8-yloxy)ethyl]azetidin-3-yl]-3-methyl-benzenesulphonamide] | 37% | 76% | 13% | 76% |  |  |  |  |  |  |  |  |  |  |  |  |  | 
Cc1cc(S(=O)(=O)NC2CCN(CCCc3noc4cc(F)ccc34)C2)c(C)s1 (centres unmarked) [Compound 221, N-[1-[3-(6-Fluoro-1,2-benzoxazol-3-yl)propyl]pyrrolidin-3-yl]-2,5-dimethyl-thiophene-3-sulphonamide] |  |  | 2% |  | −2% | −4% | −3% | 100% | 14% | 97% | 10% | 73% |  |  |  |  |  | 
O=S(=O)(NC1CN(CCOc2cccc3c2OCCO3)C1)c1ccc(Cl)cc1 [Compound 92, 4-Chloro-N-[1-[2-(2,3-dihydro-1,4-benzodioxan-8-yloxy)ethyl]azetidin-3-yl]benzene-sulphonamide] | 47% | 89% | 18% | 69% |  |  |  |  |  |  |  |  |  |  |  |  |  | 
O=S(=O)(NC1CCN(CCCc2noc3cc(F)ccc23)C1)c1csc2ccccc12 (centres unmarked) [Compound 26, N-[1-[3-(6-Fluoro-1,2-benzoxazol-3-yl)propyl]pyrrolidin-3-yl]-benzothiophene-3-sulphonamide] |  |  | −3% |  |  | 0% |  |  | 3% | 68% | −4% | 88% | −1% |  |  |  |  | 
O=S(=O)(NC1CCN(CCCc2noc3cc(F)ccc23)C1)c1ccc2cc(Cl)ccc2c1 (centres unmarked) [Compound 23, 6-Chloro-N-[1-[3-(6-fluoro-1,2-benzoxazol-3-yl)propyl]pyrrolidin-3-yl]naphthalene-2-sulphonamide] |  |  | −2% |  |  | −1% | −10% | 68% | 1% | 87% |  |  | −2% |  |  |  |  | 
Cc1c(S(=O)(=O)N[C@@H]2CCN(CCCc3noc4cc(F)ccc34)C2)sc2ccc(F)cc12 [Compound 202, 5-Fluoro-N-[(3R)-1-[3-(6-fluoro-1,2-benzoxazol-3-yl)propyl]pyrrolidin-3-yl]-3-methyl-benzothiophene-2-sulphonamide] |  |  | −3% |  |  | 1% | −5% | 81% | 0% | 95% |  |  | 0% |  |  |  |  | 
O=S(=O)(N[C@@H]1CCN(CCCc2noc3cc(F)ccc23)C1)c1ccc2cc(Cl)ccc2c1 [Compound 200, 6-Chloro-N-[(3R)-1-[3-(6-fluoro-1,2-benzoxazol-3-yl)propyl]pyrrolidin-3-yl]naphthalene-2-sulphonamide] |  |  | −1% |  |  | −2% | −1% | 93% | 0% | 96% |  |  | 0% |  |  |  |  | 
Cc1cc(S(=O)(=O)N[C@H]2CCN(CCCc3noc4cc(F)ccc34)C2)c(C)s1 [Compound 223, N-[(3S)-1-[3-(6-Fluoro-1,2-benzoxazol-3-yl)propyl]pyrrolidin-3-yl]-2,5-dimethyl-thiophene-3-sulphonamide] |  |  | 0% |  | 0% | −1% |  |  |  |  | 4% | 22% |  |  |  |  |  | 
O=S(=O)(NC1CCN(CCCc2noc3cc(F)ccc23)C1)c1cc2ccccc2s1 (centres unmarked) [Compound 25, N-[1-[3-(6-Fluoro-1,2-benzoxazol-3-yl)propyl]pyrrolidin-3-yl]-benzothiophene-2-sulphonamide] |  |  | −2% |  | −2% | 0% | 0% | 82% | 3% | 89% |  |  |  | 4.7 nM | 10 nM | 8 nM | 1.4 nM | 2.3 nM
O=S(=O)(NC1CCN(CCCc2noc3cc(F)ccc23)C1)c1ccc2ccccc2c1 (centres unmarked) [Compound 21, N-[1-[3-(6-Fluoro-1,2-benzoxazol-3-yl)propyl]pyrrolidin-3-yl]naphthalene-2-sulphonamide] |  |  | −1% |  | 2% | 1% | −8% | 83% | 6% | 98% |  |  |  | 8.3 nM |  | 7.3 nM | 1.7 nM | 1.6 nM
O=S(=O)(NC1CCN(CCCc2noc3cc(F)ccc23)C1)c1cccc2ccccc12 (centres unmarked) [Compound 20, N-[1-[3-(6-Fluoro-1,2-benzoxazol-3-yl)propyl]pyrrolidin-3-yl]naphthalene-1-sulphonamide] |  |  | −2% |  | 0% | 1% |  |  | 4% | 32% | 17% | 79% |  |  |  |  |  | 
Cc1cc(S(=O)(=O)N[C@@H]2CCN(CCCc3noc4cc(F)ccc34)C2)c(C)s1 [Compound 222, N-[(3R)-1-[3-(6-Fluoro-1,2-benzoxazol-3-yl)propyl]pyrrolidin-3-yl]-2,5-dimethyl-thiophene-3-sulphonamide] |  |  | −1% |  | −1% | −1% |  |  | 6% | 65% | 6% | 58% |  |  |  |  |  | 
O=S(=O)(N[C@@H]1CCN(CCCc2noc3cc(F)ccc23)C1)c1csc2ccccc12 [Compound 224, N-[(3R)-1-[3-(6-Fluoro-1,2-benzoxazol-3-yl)propyl]pyrrolidin-3-yl]benzothiophene-3-sulphonamide] |  |  | −1% |  |  | −1% |  |  | 5% | 57% | −7% | 84% | −2% |  |  |  |  | 
O=S(=O)(N[C@H]1CCN(CCCc2noc3cc(F)ccc23)C1)c1csc2ccccc12 [Compound 225, N-[(3S)-1-[3-(6-Fluoro-1,2-benzoxazol-3-yl)propyl]pyrrolidin-3-yl]benzothiophene-3-sulphonamide] |  |  | 0% |  |  | 1% |  |  | 7% | 52% | −3% | 35% | −1% |  |  |  |  | 
